According to the NIST ThermoML archive (doi:10.1016/j.jct.2012.09.019):
Numbers after ± are expanded uncertainties.

Columns and labels:
[1] = Crystal
[2] = refractive index (Na D-line) (dimensionless); settings: 293.15 K; 101.33 kPa; Liquid; digital refractometer

Row | SMILES | Normal melting temperature ([1]; Heating/Cooling curves) [°C] | refractive index [2] | Normal melting temperature ([1]; heating/cooling curves) [°C]
1 | CCCCC(=O)O [pentanoic acid] | -34.4 ± 2 | 1.40857 ± 0.0015 | –
2 | CCCCCCCCCCCCCCCC [hexadecane] | 18.1 ± 2 | 1.43461 ± 0.0014 | 18.0 ± 2
3 | CCCCCC(=O)O [hexanoic acid] | -2.4 ± 2 | 1.41692 ± 0.0015 | –
4 | CCCCCCC(=O)O [heptanoic acid] | -7.5 ± 2 | 1.4229 ± 0.0014 | –
5 | CCC(=O)O [propanoic acid] | -20.8 ± 2 | 1.38682 ± 0.0014 | –
6 | CCCC(=O)O [butanoic acid] | -5.2 ± 2 | 1.39808 ± 0.0014 | –
7 | C1CCCCC1 [cyclohexane] | 6.7 ± 2 | 1.42631 ± 0.0014 | –
